PubChem BioAssay (NCI)
Values joined by “and” are separate entries in the source; they are usually repeats but may differ in a detail not shown here. Equal entries are not always repeated.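 Assay format: 96-well plates, 48-hour exposure. Here, GI50 denotes the concentration required for 50% inhibition of growth. TGI: concentration producing complete growth inhibition.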

Assays:
Experiment in all cases: DTP human tumour cell line panel, 48 h
A498 renal = test system: A498 renal
HCT-15 colon = test system: HCT-15 colon
HOP-92 NSCLC = test system: HOP-92 NSCLC
HS 578T breast = test system: HS 578T breast
MCF7 breast = test system: MCF7 breast
MOLT-4 leukemia = test system: MOLT-4 leukemia
NCI-H226 lung = test system: NCI-H226 lung
NCI/ADR-RES ovarian = test system: NCI/ADR-RES ovarian
RPMI-8226 leukemia = test system: RPMI-8226 leukemia
SF-295 CNS = test system: SF-295 CNS

Compound | GI50 (A498 renal) | TGI (A498 renal) | GI50 (HCT-15 colon) | TGI (HCT-15 colon) | GI50 (HOP-92 NSCLC) | TGI (HOP-92 NSCLC) | GI50 (HS 578T breast) | TGI (HS 578T breast) | GI50 (MCF7 breast) | TGI (MCF7 breast) | GI50 (MOLT-4 leukemia) | TGI (MOLT-4 leukemia) | GI50 (NCI-H226 lung) | TGI (NCI-H226 lung) | GI50 (NCI/ADR-RES ovarian) | TGI (NCI/ADR-RES ovarian) | GI50 (RPMI-8226 leukemia) | TGI (RPMI-8226 leukemia) | GI50 (SF-295 CNS) | TGI (SF-295 CNS)
CO[C@H]1CC(O[C@@H]2/C(C)=C/C[C@@H]3C[C@@H](C[C@]4(CC[C@H](C)[C@@H](C5CCCCC5)O4)O3)OC(=O)[C@@H]3C=C(C)/C(=N/O)[C@H]4OC/C(=C\C=C\[C@@H]2C)[C@]43O)O[C@@H](C)C1O (stereo not given in full) | 0.802 µM | 1.95 µM | 0.873 µM | 1.95 µM | 0.648 µM | 1.57 µM | 1.22 µM | 5.52 µM | 0.972 µM | 2.46 µM | 1.12 µM | 2.53 µM | 0.73 µM | 1.43 µM | 1.07 µM | 2.9 µM | 0.944 µM | 2.72 µM | 0.888 µM | 1.87 µM
Cn1c2c(c3ccccc31)CCN1C(=O)CCC21 (stereo not given) | – | > 10 µM | – | > 10 µM | – | > 10 µM | – | > 10 µM | – | > 10 µM | – | > 10 µM | – | > 10 µM | – | > 10 µM | – | > 10 µM | – | > 10 µM
CC(=O)c1cc(C(=O)c2ccc3c(c2)Sc2ccccc2N3)n2ccccc12 | 0.00225 µM and 0.00332 µM | – | 0.00472 µM and 0.00332 µM | > 33.2 µM | – | 14.5 µM | 0.00375 µM and 0.00332 µM | > 33.2 µM | 0.00344 µM and 0.00332 µM | > 33.2 µM | 0.00623 µM and 0.00332 µM | > 33.2 µM | – | > 33.2 µM | 0.00393 µM and 0.00332 µM | 1.86 µM | 0.00585 µM and 0.00332 µM | 20.6 µM | 0.00284 µM | 0.076 µM
CCc1nc2ccc(N=Nc3c(O)ccc4ccccc34)cc2[nH]1 | – | 50.6 µM | – | 33.4 µM | – | 42.7 µM | – | 48.6 µM | – | 42.2 µM | – | 81.1 µM | – | 41.1 µM | – | 54.8 µM | – | > 78 µM | – | 43.5 µM
Cc1cc(Nc2nc(N[C@@H](C)c3ncc(F)cn3)ncc2Cl)n[nH]1 | 1.85 µM | 13.1 µM | 24.9 µM | > 100 µM | 10.1 µM | 42.4 µM | 15.9 µM | > 71.8 µM | 8.71 µM | > 100 µM | 60.7 µM | > 100 µM | 1.14 µM | 54.8 µM | 32 µM | > 100 µM | > 62 µM | > 100 µM | 35.6 µM | > 100 µM
Cc1cn(Cc2ccc(C34CC5CC(CC(C5)C3)C4)c(O)c2)c(=O)[nH]c1=O | 4.33 µM | 17.8 µM | 7.99 µM | 20.5 µM | 14.4 µM | 29.5 µM | 8.42 µM | 33.8 µM | 7.96 µM | 72.9 µM | 7.5 µM | 27.5 µM | 15.4 µM | 29.9 µM | 11.3 µM | 27.2 µM | 1.79 µM | 21 µM | 4.56 µM | 18.5 µM
CCN(CC)CCCC(C)N/C(=C1\C(=O)NC(=O)\C1=C(/NC(C)CCCN(CC)CC)c1cccc(OC)c1)c1cccc(OC)c1 (stereo not given) | 0.791 µM | 5.58 µM | 0.764 µM | 4.07 µM | 0.642 µM | 1.76 µM | 1.11 µM | 3.22 µM | 1.03 µM | 3.56 µM | 0.312 µM | 2.09 µM | 1.29 µM | 5.9 µM | 1.36 µM | 5.04 µM | 0.949 µM | 2.29 µM | 0.813 µM | 1.78 µM
CSc1nc2c(c(=O)n1C)CN(C1CCCCC1)C(=O)C(c1ccccc1)N2 (stereo not given) | 0.292 µM | 37.6 µM | 16.1 µM | > 100 µM | 14.3 µM | 91.4 µM | 15.9 µM | 80.7 µM | 19.3 µM | 66 µM | 12.2 µM | 39 µM | 77.3 µM | > 100 µM | 38.9 µM | > 100 µM | 11.3 µM | > 100 µM | 35.3 µM | > 100 µM
Nc1ccccc1C(=O)CCC1C(=O)NC(=S)NC1=O | – | > 100 µM | – | > 100 µM | – | > 100 µM | – | > 100 µM | – | > 100 µM | – | > 100 µM | – | > 100 µM | – | > 100 µM | – | > 100 µM | – | > 100 µM
CCN(Cc1cccc(Cl)c1)c1ccc(CO)c(Cl)c1 | 0.029 µM | 0.166 µM | 9.93 µM | 25.9 µM | 1.29 µM | 10.7 µM | 13.6 µM | 37.5 µM | 0.329 µM | 11.4 µM | 12.1 µM | 34.7 µM | 0.0905 µM | 0.236 µM | 10.8 µM | 23.8 µM | 4.35 µM | 28.1 µM | 1.12 µM | 13.8 µM
CCCCCCCC/C=C/CCCCCCCC1=NC(C)(C)CN1CCO | 2.64 µM | 16.8 µM | 1.58 µM | 3.16 µM | 1.43 µM | 7.45 µM | 1.76 µM | 3.98 µM | 1.7 µM | 3.19 µM | 1.44 µM | 4.9 µM | 12.6 µM | 32.8 µM | 3.87 µM | 13.9 µM | 2.02 µM | 4.31 µM | 1.73 µM | 3.36 µM
C/C(=C(\c1ccc(OCCN2CCCCCC2)cc1)c1ccc(OC(=O)c2ccccc2)cc1)c1ccc(Cl)cc1 | 3.79 µM | 8.09 µM | 1.4 µM | 5.99 µM | 3.57 µM | 7.8 µM | 3.04 µM | 9.76 µM | 0.348 µM | 5.94 µM | 2.25 µM | 10.9 µM | 5.47 µM | 11.1 µM | 4.56 µM | 11.2 µM | 3.03 µM | 10.2 µM | 2.71 µM | 7.44 µM
COc1cc(C2c3cc4c(cc3C(OC(=O)C[n+]3ccccc3)C3COC(=O)C23)OCO4)cc(OC)c1OC (stereo not given) | < 0.01 µM | 15.8 µM | < 0.0171 µM | > 100 µM | < 0.013 µM | 2.74 µM | < 0.0241 µM | > 100 µM | < 0.014 µM | > 100 µM | < 0.0197 µM | > 100 µM | < 0.01 µM | > 100 µM | < 0.0169 µM | > 100 µM | < 0.0203 µM | > 100 µM | < 0.0164 µM | > 100 µM
CN1CCN(Cc2ccc(NC(=O)c3cncc(C#Cc4cnc(N)c5cccnc45)c3)cc2C(F)(F)F)CC1 | 0.112 µM | 0.723 µM | 1.85 µM | > 50 µM | 0.148 µM | 1.16 µM | 0.196 µM | 1.61 µM | 0.69 µM | > 50 µM | 0.214 µM | > 50 µM | 0.191 µM | > 50 µM | > 50 µM | > 50 µM | 0.603 µM | > 50 µM | 2.07 µM | > 50 µM
C=CCC(N[C@@H](CO)c1ccccc1)c1cn(C(=O)OCC)c2ccccc12 (stereo not given in full) | 25.9 µM | 61.6 µM | 18.9 µM | 40.8 µM | 16.5 µM | 39.8 µM | 21 µM | 40.3 µM | 29.4 µM | > 100 µM | 15.5 µM | > 100 µM | 23.1 µM | 48.7 µM | 18.9 µM | 55.5 µM | 17.9 µM | 52.3 µM | 20.8 µM | 53.9 µM
NS(=O)(=O)c1cc(C(=O)O)c(O)c2ccccc12 | – | > 100 µM | – | > 100 µM | – | > 100 µM | – | > 100 µM | – | > 100 µM | – | > 100 µM | – | > 100 µM | – | > 100 µM | – | > 100 µM | – | > 100 µM
O=[N+]([O-])c1cc([N+](=O)[O-])c(Nn2c3ccccc3c3ccccc32)c([N+](=O)[O-])c1 | 0.228 µM | 0.624 µM | 0.377 µM | 11.8 µM and 3.97 µM | – | 2.81 µM | 0.366 µM | – | 0.292 µM | 5.86 µM | 0.11 µM | > 100 µM | 0.357 µM | 7.5 µM | 0.317 µM | > 100 µM | – | 0.56 µM | – | 0.79 µM
CC(=O)[C@H]1CCC/C=C/[C@@H]2C[C@H](O)C[C@H]2[C@H](O)/C=C/C(=O)O1 | 0.118 µM | 1.37 µM | 1.05 µM | > 44.7 µM | 4.93 µM | > 100 µM | 2.44 µM | > 100 µM | 0.363 µM | 5.81 µM | 0.321 µM | – | 0.976 µM | 2.28 µM | 0.527 µM | 3.46 µM | 0.36 µM | – | 4.33 µM | > 100 µM
COC(=O)c1oc2c(C(=O)/C=C/c3ccc(OC)cc3)c(OCCN(C)C)ccc2c1C | 10.1 µM | 22.6 µM | 4.13 µM | 16.8 µM | 5.91 µM | 19.8 µM | 6.27 µM | 22.4 µM | 2.98 µM | 9.89 µM | 2.59 µM | 7.47 µM | 13.1 µM | 27.8 µM | 10.3 µM | 28 µM | 3.83 µM | 20.5 µM | 14.2 µM | 29.3 µM
Clc1ccccc1-c1nnc2c(Cc3ccccc3)nc3ccccc3n12 | 1.21 µM | > 100 µM | 1.56 µM | > 100 µM | 3.45 µM | 41.8 µM | 9.04 µM | > 100 µM | 34 µM | > 100 µM | 9.04 µM | > 100 µM | 6.91 µM | > 100 µM | 12.7 µM | > 100 µM | 5.64 µM | > 100 µM | 8.12 µM | > 100 µM
C/C=C1/CC(C)C(C)(O)C(=O)OCC2C(O)CN3CCC(OC1=O)C23 (stereo not given) | – | > 100 µM | – | > 100 µM | – | > 100 µM | – | > 100 µM | – | > 100 µM | – | > 100 µM | – | > 100 µM | – | > 100 µM | – | > 100 µM | – | > 100 µM
CC(=O)N1N=C(c2ccc(Nc3nc(Nc4ccc(F)cc4)nc(Nc4ccc(F)cc4)n3)cc2)CC1c1ccc(N(C)C)cc1 (stereo not given) | 5.58 µM | 26.8 µM | 2.41 µM | 7.43 µM | – | 0.488 µM | 1.6 µM | 9.02 µM | 3.23 µM | 13.7 µM | 1.57 µM | 5.7 µM | 3.29 µM | 14.9 µM | 4.72 µM | 33.3 µM | 1.77 µM | 7.57 µM | 4.34 µM | 50.7 µM
